“Also recorded” adds a separate entry of the source. Read-outs that look alike come from different tables or passages of the source.
How the values were obtained:
Assay type in all cases: biochemical
Recombinant human PKD2 = molecular target: T1, Recombinant human PKD2 (Homo sapiens, UniProt Q9BZL6); assay: Radiometric PKD kinase assay, 10-point IC50
T1 sequence (Q9BZL6 1-878): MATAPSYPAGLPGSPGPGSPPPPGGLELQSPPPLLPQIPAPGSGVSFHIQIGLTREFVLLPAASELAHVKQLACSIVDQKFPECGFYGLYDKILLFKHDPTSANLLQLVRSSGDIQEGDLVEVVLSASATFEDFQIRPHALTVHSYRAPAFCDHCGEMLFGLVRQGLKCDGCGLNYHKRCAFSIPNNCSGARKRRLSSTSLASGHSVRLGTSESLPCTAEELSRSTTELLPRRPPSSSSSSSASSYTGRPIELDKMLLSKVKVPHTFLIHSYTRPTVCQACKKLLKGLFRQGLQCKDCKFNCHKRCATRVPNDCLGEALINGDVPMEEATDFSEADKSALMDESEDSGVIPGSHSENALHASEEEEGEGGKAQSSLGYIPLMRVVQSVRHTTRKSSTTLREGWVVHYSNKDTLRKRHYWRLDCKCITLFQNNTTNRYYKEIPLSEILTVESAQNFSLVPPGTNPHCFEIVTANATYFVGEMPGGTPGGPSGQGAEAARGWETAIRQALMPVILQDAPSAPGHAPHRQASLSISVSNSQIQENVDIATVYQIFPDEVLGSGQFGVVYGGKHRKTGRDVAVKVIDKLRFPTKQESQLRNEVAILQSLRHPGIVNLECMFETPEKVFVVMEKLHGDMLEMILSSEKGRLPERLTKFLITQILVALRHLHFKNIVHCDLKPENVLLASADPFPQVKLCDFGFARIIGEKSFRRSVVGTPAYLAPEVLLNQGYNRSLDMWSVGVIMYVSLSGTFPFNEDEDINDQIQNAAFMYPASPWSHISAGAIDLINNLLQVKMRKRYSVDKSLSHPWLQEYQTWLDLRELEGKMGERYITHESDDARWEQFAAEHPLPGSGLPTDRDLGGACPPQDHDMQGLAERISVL
Experimental: Recombinant human PKD1, 2, or 3 proteins were incubated in a mixture containing a peptide substrate derived from a PKD substrate, HDAC-5, and 10 different concentrations of the two compounds.
The IC50 values were calculated as the mean ±SEM of at least three independent experiments with triplicate determinations at each concentration of drug in each experiment. The data were plotted as a function of drug concentration and a representative graph is shown.

CAMKIIα = molecular target: T2, CAMKIIα (Homo sapiens, UniProt Q9UQM7); assay: In vitro radiometric CAMK kinase assay; details: up to 10 µM
T2 construct: purchased SignalChem (Richmond, BC, Canada)
Experimental: (§1) The PKC kinase assay was carried out by co-incubating 1 µCi [γ-^32P]ATP, 20 µM ATP, 50 ng of purified PKCα or PKCδ and 5 µg of myelin basic protein 4–14, 0.25 mg/mL bovine serum albumin, 0.1 mg/mL phosphatidylcholine/phosphatidylserine (80/20%) (1 µM), 1 µM phorbol dibutyrate in 50 µL of kinase buffer containing 50 mM Tris-HCl, pH 7.5, 4 mM MgCl2 and 10 mM β-mercaptoethanol. For the CAMK assay, 50 ng of CAMKIIα and 2 µg syntide-2 substrate in 50 µL kinase buffer were incubated with 0.1 mM MgCl2, 1 µCi of [γ-^32P] ATP, 70 µM ATP. 0.5 mM CaCl2 and 30 ng/µL calmodulin were preincubated for 15 min on ice and then added in the kinase reaction. The reactions were incubated at 30°C for 10 min and 25 µL of the reaction was spotted on Whatman P81 filter paper. The filter paper was washed 3 times in 0.5% phosphoric acid, air dried and counted using Beckman LS6500 multipurpose scintillation counter.

PKCδ = molecular target: T3, PKCδ (Homo sapiens, UniProt Q05655); assay: In vitro radiometric PKC kinase assay
T3 construct: purchased SignalChem (Richmond, BC, Canada)
Experimental: as §1

PKCα = molecular target: T4, PKCα (Homo sapiens, UniProt P17252); assay: In vitro radiometric PKC kinase assay
T4 construct: purchased SignalChem (Richmond, BC, Canada)
Experimental: as §1

PKD1 = molecular target: T5, PKD1 (Homo sapiens, UniProt Q15139); assay: ATP competition, Lineweaver-Burk analysis of PKD1 kinase activity; details: Lineweaver-Burk plots, increasing ATP
T5 construct: GST; purchased Enzo Life sciences (Farmingdale, NY)
T5 sequence (Q15139 1-912): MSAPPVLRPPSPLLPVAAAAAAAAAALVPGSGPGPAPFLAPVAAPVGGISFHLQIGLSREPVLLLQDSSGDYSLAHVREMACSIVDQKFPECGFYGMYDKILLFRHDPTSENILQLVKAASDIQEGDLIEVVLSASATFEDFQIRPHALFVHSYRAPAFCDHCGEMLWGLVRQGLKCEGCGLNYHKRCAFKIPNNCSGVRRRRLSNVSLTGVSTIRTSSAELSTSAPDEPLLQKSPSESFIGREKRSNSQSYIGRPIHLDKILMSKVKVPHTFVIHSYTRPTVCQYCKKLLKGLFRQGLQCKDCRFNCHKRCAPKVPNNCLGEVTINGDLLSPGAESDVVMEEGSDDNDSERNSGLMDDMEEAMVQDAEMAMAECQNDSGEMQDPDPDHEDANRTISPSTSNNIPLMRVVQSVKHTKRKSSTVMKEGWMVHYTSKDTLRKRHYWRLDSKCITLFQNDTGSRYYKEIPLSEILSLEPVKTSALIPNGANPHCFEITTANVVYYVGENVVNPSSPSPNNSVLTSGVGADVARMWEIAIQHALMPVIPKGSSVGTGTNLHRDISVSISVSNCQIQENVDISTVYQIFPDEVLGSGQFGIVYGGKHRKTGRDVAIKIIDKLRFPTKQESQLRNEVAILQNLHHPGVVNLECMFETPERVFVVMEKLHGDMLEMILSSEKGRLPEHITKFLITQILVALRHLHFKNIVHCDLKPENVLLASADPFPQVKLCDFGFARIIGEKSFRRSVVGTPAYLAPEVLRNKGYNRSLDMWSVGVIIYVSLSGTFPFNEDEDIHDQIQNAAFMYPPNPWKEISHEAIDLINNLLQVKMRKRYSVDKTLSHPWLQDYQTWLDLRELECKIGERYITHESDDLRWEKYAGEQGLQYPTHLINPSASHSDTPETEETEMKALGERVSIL
Description: Lineweaver-Burk plots were generated by plotting the reciprocal of reaction velocities (1/v) against the reciprocal of ATP concentrations (1/[ATP]) at different compound concentrations. The points were fitted by linear regression.
Data presented were representative of three independent experiments.

T3 sequence (Q05655 whole entry): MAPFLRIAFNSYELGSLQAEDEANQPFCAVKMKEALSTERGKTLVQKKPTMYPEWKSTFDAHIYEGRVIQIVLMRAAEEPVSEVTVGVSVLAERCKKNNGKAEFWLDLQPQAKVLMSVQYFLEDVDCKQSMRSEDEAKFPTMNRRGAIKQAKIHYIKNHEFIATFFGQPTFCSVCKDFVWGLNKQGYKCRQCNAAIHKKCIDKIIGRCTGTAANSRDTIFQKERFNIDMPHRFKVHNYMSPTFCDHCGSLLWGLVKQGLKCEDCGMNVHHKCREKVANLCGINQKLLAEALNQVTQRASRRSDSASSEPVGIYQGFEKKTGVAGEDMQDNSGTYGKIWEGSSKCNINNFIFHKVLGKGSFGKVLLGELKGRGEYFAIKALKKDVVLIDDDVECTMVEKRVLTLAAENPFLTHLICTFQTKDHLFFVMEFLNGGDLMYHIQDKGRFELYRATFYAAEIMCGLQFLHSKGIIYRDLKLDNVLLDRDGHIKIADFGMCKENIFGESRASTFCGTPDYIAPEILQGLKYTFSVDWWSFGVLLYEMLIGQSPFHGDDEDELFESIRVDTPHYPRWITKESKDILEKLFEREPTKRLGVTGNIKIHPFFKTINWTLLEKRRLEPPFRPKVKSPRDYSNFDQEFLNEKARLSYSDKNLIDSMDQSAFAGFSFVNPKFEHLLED

Compound: O=C(c1ccc(Nc2nccc(-c3cc4ccccc4s3)n2)cc1)N1CCC(N2CCCC2)CC1 [IKK-16, reference compound]
- IC50 (Recombinant human PKD2; mean ± SEM, read-out: IC50 PKD2): 115 nM
- IC50 (Recombinant human PKD2; value in the figure, representative graph, read-out: PKD2 IC50): 108 nM
- inhibition of CAMKIIα, in words (CAMKIIα): almost completely abrogated its activity
- inhibition of PKCδ (PKCδ; 10 µM): > 50%
- inhibition of PKCα (PKCα; 10 µM): > 50%
- mode of PKD1 inhibition with respect to ATP (PKD1): ATP-competitive inhibitors

Compound: CC(C)(C)n1nc(-c2cccc3ccccc23)c2c(N)ncnc21 [Compound 1-NA-PP1, 1-(t-Butyl)-3-(naphthalen-1-yl)-1H-pyrazolo[3,4-d]pyrimidin-4-amine]
- IC50 (Recombinant human PKD2; IC50 PKD2, mean ± SEM): 133 nM
- IC50 (Recombinant human PKD2; PKD2 IC50, value printed in the figure, representative graph): 133 nM
- inhibition of CAMKIIα, in words (CAMKIIα): little activity; also recorded: did not significantly inhibit
- inhibition of PKCδ, in words (PKCδ; 0.1, 1 and 10 µM): No significant inhibitory activities; also recorded: did not significantly inhibit
- inhibition of PKCα, in words (PKCα; 0.1, 1 and 10 µM): No significant inhibitory activities; also recorded: did not significantly inhibit
- mode of PKD1 inhibition with respect to ATP (PKD1): ATP-competitive inhibitors

Reference: article PMC3781056, “New Pyrazolopyrimidine Inhibitors of Protein Kinase D as Potent Anticancer Agents for Prostate Cancer Cells” (PLoS ONE, 2013)
